Experimental data taken from patent US20190174748A1, “COMPOSITION FOR DELIVERY OF ACTIVE AGENTS TO AN ANIMAL” (priority 2015, published 2019).

Experiments:
Rodents = settings: rodents ingesting baits; cited from earlier work
rats = settings: 250-500 g rats, baits at 4% Warfarin activity
From the text: Experimental Methods: 250-500 g rats are used. Rats are fed ad libitum. Each experimental group is housed in a separate cage.
The feed intake and kill effect on the rats are monitored.

BALB/C mice [1] = settings: baits at 4% Warfarin activity
From the text: Experimental Methods: Ten-twelve week old female BALB/C mice are used. Mice are fed ad libitum. Each experimental group is housed in a separate cage.
The feed intake and kill effect on the mice are monitored.

BALB/C mice [2] = experiment: Oral administration of OVA composition to mice: OVA specific IgG, IgA (ELISA) and ASC; assay type: in vivo; settings: mice inoculated at 0 and 3 weeks, sampled at week 4
Method: Ovalbumin is orally administered to mice to test the efficacy of the inventive compositions in inducing an immune response.
Ovalbumin composition: Ovalbumin (1 mg/g of ovalbumin, Sigma, St. Louis, Mo.,) is incorporated into the inventive composition as described in Example 5. Three groups of 4 mice each are inoculated as follows: 1) ovalbumin (OVA) in the composition, administered orally, 2) OVA solution, administered subcutaneously (SC), 3) antigen free composition administered orally. Mice are inoculated at 0 and 3 weeks. Each dose administers a total 100 mg of dry composition mixed with corn oil at a ratio of 1:2 w/w of dry composition/oil, coated onto feed pellets. At week 4 each mouse is euthanized and serum and spleen cells are harvested.
Immunological assays: Serum is assayed for IgG and IgA by ELISA. ELISA is performed using OVA absorbed to polystyrene plates. Samples are placed in wells in triplicate at a 1:25 dilution for serum. Goat anti-mouse antibody conjugated with horse radish peroxidase is used, followed by an orthophenylenediamine substrate (Sigma, St. Louis, Mo., U.S.A.). Optical density of each well is determined by placing the plate in a microtiter plate spectrophotometer and reading the plate at 490 nm. Spleen cells are tested for antibody secreting cells (ASC) specific for OVA, using techniques described previously.

[3] = Degradation of unprotected OVA in simulated gastric fluid with 0.08% pepsin, pH 2; assay type: in vitro ADME; settings: pH 2, 37° C.
Method: Western Blot: the compositions were lysed with RIPA buffer as described above, and a calculated amount equivalent to 12 μg of protein per sample was loaded on a 10% SDS-polyacrylamide gradient gel (SDS-PAGE, Bio-Rad, Hercules, Calif.). Proteins were transferred onto a PVDF membrane (Bio-Rad) and blocked for 1 h with 5% non-fat milk in PBS containing 0.5% Tween-20 (PBS-T). Blots were incubated with an appropriate primary antibody at 1:5000 dilutions for 1 h at room temperature. After washing with PBS-T (3×10 mL, 5 min. each), the membranes were incubated with an appropriate HRP-conjugated secondary antibody (EMD Millipore Corporation, Billerica, Mass., USA) at 1:5000 dilution for 1 h. After washing with PBS-T (3×10 mL, 5 min. each), chemiluminescent films were developed with an ECL substrate (Amsheram Biosciences).
To evaluate the loss of activity of a protein antigen following a typical gastric exposure, non-encapsulated OVA (10 mg) was incubated in 10 ml simulated gastric fluid containing 0.08% pepsin at pH-2 for 2 h at 37° C. on a shaker. Medium was withdrawn at 15 min, 30 min, 60 min and 120 min incubation times, and the amount of residual OVA was analyzed using Western Blot analysis as described above.

Molecule: CC(=O)CC(c1ccccc1)c1c(O)c2ccccc2oc1=O (stereo not shown) [Warfarin]
- time to become unconscious (Rodents): 1 to 2 h
- time to obvious symptoms of poisoning (Rodents): 15 to 30 min
- time to recovery after sub lethal amount (Rodents): ≤ 8 h
- kill effect after 8 h from feeding (rats): all group 2 rats remain alive
- kill effect after 8 h from feeding (BALB/C mice [1]): all group 2 mice remain alive

Molecule: ovalbumin [non-encapsulated OVA, ovalbumin, model vaccine / protein antigen, unprotected]
- OVA specific serum IgA, IgG and ASC secreting cells (BALB/C mice [2]): equally increased

B1: ovalbumin (protein, UniProt P01012 2-386, looked up)
Ovalbumin: GSIGAASMEFCFDVFKELKVHHANENIFYCPIAIMSALAMVYLGAKDSTRTQINKVVRFDKLPGFGDSIEAQCGTSVNVHSSLRDILNQITKPNDVYSFSLASRLYAEERYPILPEYLQCVKELYRGGLEPINFQTAADQARELINSWVESQTNGIIRNVLQPSSVDSQTAMVLVNAIVFKGLWEKAFKDEDTQAMPFRVTEQESKPVQMMYQIGLFRVASMASEKMKILELPFASGTMSMLVLLPDEVSGLEQLESIINFEKLTEWTSSNVMEERKIKVYLPRMKMEEKYNLTSVLMAMGITDVFSSSANLSGISSAESLKISQAVHAAHAEINEAGREVVGSAEAGVDAASVSEEFRADHPFLFCIKHIATNAVLFFGRCVSP
notes: ovalbumin, model vaccine / protein antigen, unprotected
- Remaining activity (%) ([3]; 15 min in simulated gastric fluid, relative to pre-exposure activity): 61%
- Remaining activity (%) ([3]; 30 min in simulated gastric fluid): 55%
- Remaining activity (%) ([3]; 60 min in simulated gastric fluid): 38%
- Remaining activity (%) ([3]; 120 min in simulated gastric fluid): 2%
